Test results from patent publication US20080312128A1, “Cellular Biomarker Antioxidant Assay and Uses Thereof” (priority 2005, published 2008).
Read-outs that look alike come from different tables or passages of the source.

Assays:
FosB = settings: ARPE-19 cells
Procedure: For OS studies, ARPE19 cells were incubated for 1 hour at 37° C. in conditioned NR-1 media containing 50-500 μM H202. Cells were either not rinsed (1-, 2-, and 4-hour isolations) or rinsed using the Media Rinse 2 method (4-, 8-, and 24-hour isolations). At designated time-points, NR-1 medium was aspirated and the total cellular RNA was immediately isolated in TRI reagent (Sigma). Single wells were used in each plate to minimize any influence of temperature shifts on gene expression. All procedures were performed in a dim red light environment to reduce any influence of light on gene expression. RNA was isolated either before the onset of OS(O-hour control), or at 1, 2, 4, 8, or 24 hours after the start of the 1-hour OS treatment.
Assays of oxidative stress as described above with RPE cells were performed using the “no touch” technique, to determine whether OS-specific responses of FosB gene expression occurred during the first 8 hours after induction of stress. In addition, a dose-response study of FosB gene expression was performed to determine whether the degree of OS could be quantified using this molecular response.
(§1) Human retinal pigment epithelial (RPE) cells (ARPE-19) were cultured in DMEM/F12 media supplemented with 10% fetal bovine serum (FBS, Atlanta Biologicals, Norcross, Ga.) plus L-glutamine, penicillin, and streptomycin in an atmosphere of humidified 95% air and 5% CO2 at 37° C. until confluent in single wells of 6-well plates. The cells were initially grown in DMEM/F12 with FBS to reduce the time to reach confluence. Cells were then rinsed and fed with NR-1 media (BioSource, Camarillo, Calif.). NR-1 is a chemically defined tissue culture medium supplemented with EGF, insulin, hydrocortisone, and transferrin. After feeding with NR-1, the confluent cells were cultured for 3 days to stabilize gene expression.
(§2) The OS was not rinsed from the culture; rather, the NR-1 medium was aspirated and TRI Reagent (Sigma, St. Louis, Mo.) was immediately added to lyse the cells and stabilize the RNA at the designated time-points.
(§3) Total cellular RNA was isolated from the cells at time points 0, 1, and 4 hours using TRI reagent as described above using the protocol recommended by the manufacturer. The RNA was cleaned of trace DNA contaminants by treatment with DNA-Free (Ambion, Austin, Tex.) and the concentration was measured by spectrophotometry. The purified RNA was dissolved in DEPC-treated double distilled water at the concentration of 0.2 mg/ml. and stored at −80° C.
(§4) One μg of total cellular RNA was reversed transcribed (RT) in 20 μL of reaction volume using the Reverse Transcription System using the manufacturer's recommended protocol (Promega, Madison, Wis.). The RT product was diluted 1:5 with DNase-free water and quantitative PCR (qPCR) amplification was performed in 50 μl of buffer containing 1×SYBR® Green PCR Master mix (ABI), optimized forward and reverse qPCR primers and 5 μl of the 1:5 diluted RT product. The qPCR reaction was started at a 50° C. hold for 2 minutes, then 95° C. hold for 10 minutes, followed by 40 cycles of 95° C. for 15 seconds, and 60° C. for 1 minute. The reaction was performed using the ABI PRISM® 7700 Sequence Detection System.

cFos = test: H2O2-induced c-Fos transcription in cultured RPE cells, qPCR; assay type: cell-based, human; settings: for Fold change in expression, cFos, 1-Hr / Fold change in expression, cFos, 4-Hr: ARPE-19 cells
Procedure: as §1, §2, §3, §4

ATF3 = test: H2O2-induced ATF3 transcription in cultured RPE cells, qPCR; assay type: cell-based, human; settings: for Fold change in expression, ATF3, 1-Hr / Fold change in expression, ATF3, 4-Hr: ARPE-19 cells
Procedure: as §1, §2, §3, §4

CRYBA = settings: ARPE-19 cells
Procedure: as §1, §2, §3, §4

JunB = test: H2O2-induced JunB transcription in cultured RPE cells, qPCR; assay type: cell-based, human; settings: for Fold change, JunB, 1-Hr / Fold change, JunB, 4-Hr: ARPE-19 cells
Procedure: as §1, §2, §3, §4

HO-1 = test: H2O2-induced HO-1 transcription in cultured RPE cells, qPCR; assay type: cell-based, human; settings: for Fold change, HO-1, 1-Hr / Fold change, HO-1, 4-Hr: ARPE-19 cells
FosL = test: H2O2-induced FosL transcription in cultured RPE cells, qPCR; assay type: cell-based, human
Procedure: as §1, with “After feeding with NR-1, the confluent cells were cultured for 3 days to stabilize gene expression.” left out
as §3, with “The purified RNA was dissolved in DEPC-treated double distilled water at the concentration of 0.2 mg/ml. and stored at −80° C.” left out
One μg of total cellular RNA was reversed transcribed (RT) in 20 μL of reaction volume using the Reverse Transcription System using the manufacturer's recommended protocol (Promega, Madison, Wis.). The RT product was diluted 1:5 with DNase-free water and quantitative PCR (qPCR) amplification was performed in 50 μl of buffer containing 1×SYBR® Green PCR Master mix (ABI), optimized forward and reverse qPCR primers and 5 μl of the 1:5 diluted RT product. […]

[1] = system: CRYAA, CRYBB, and CRYGS crystallin genes; test: H2O2-induced transcription of crystallin genes in cultured RPE cells, qPCR; assay type: cell-based, human; settings: 100 μM and 500 μM H2O2, 1 and 4 hours
Procedure: Transcription of the above-identified crystallin genes was quantified at 1 and 4 hours in cells exposed to 100 μM and 500 μM H2O2-induced OS, and compared to controls.

ARPE-19 cells = settings: confluent cell culture, MTT

OO [H2O2]
above 50 μM: H2O2 level above which HO-1 threshold response is seen (HO-1)
~4 fold: Level of JunB transcriptional activation (JunB; 4 hours, all levels of OS ≧about 100 μM H2O2)
~3 fold: Increase in ATF3 transcription (ATF3; 1 hour after OS)
12 fold: Fold change in expression, cFos, 1-Hr (cFos; 500 μM H2O2, 1 h)
does not induce: Induction of CRYAA, CRYBB, and CRYGS crystallin genes [1]
64 fold: Fold change in expression, FosB, 4-Hr (FosB; 500 μM H2O2, 4 h)
16 fold: Fold change in expression, FosB, 1-Hr (FosB; 500 μM H2O2, 1 h) | Fold change in expression, cFos, 4-Hr (cFos; 350 μM H2O2, 4 h)
−2 fold: Fold change in expression, CRYBA, 4-Hr (CRYBA; 50 μM H2O2, 4 h)
8 fold: Elevation of c-Fos transcription over controls (cFos; after 4 hours of OS) | Fold change in expression, ATF3, 4-Hr (ATF3; 350 μM H2O2, 4 h) | Fold change, JunB, 4-Hr (JunB; 100 μM H2O2, 4 h) | Fold change, HO-1, 4-Hr (HO-1; 100 μM H2O2, 4 h) | Fold change, HO-1, 4-Hr (HO-1; 200 μM H2O2, 4 h)
20 fold: Fold change in expression, FosB, 4-Hr (FosB; 350 μM H2O2, 4 h)
55%: 500 μM H2O2 for up to 4-hours as percent of dose required to induce 10% cell death (LD10) (ARPE-19 cells)
4 fold: Fold change in expression, cFos, 1-Hr (cFos; 200 μM H2O2, 1 h) | Fold change in expression, CRYBA, 1-Hr (CRYBA; 500 μM H2O2, 1 h) | Fold change in expression, CRYBA, 4-Hr (CRYBA; 500 μM H2O2, 4 h) | Fold change, JunB, 4-Hr (JunB; 200 μM H2O2, 4 h) | Fold change, JunB, 4-Hr (JunB; 350 μM H2O2, 4 h) | Fold change, JunB, 4-Hr (JunB; 500 μM H2O2, 4 h)
7 fold: Fold change in expression, cFos, 1-Hr (cFos; 350 μM H2O2, 1 h)
2 fold: Fold change in expression, FosB, 1-Hr (FosB; 50 μM H2O2, 1 h) | Fold change in expression, FosB, 4-Hr (FosB; 50 μM H2O2, 4 h) | Fold change in expression, FosB, 1-Hr (FosB; 100 μM H2O2, 1 h) | Fold change in expression, cFos, 4-Hr (cFos; 100 μM H2O2, 4 h) | Fold change in expression, ATF3, 1-Hr (ATF3; 200 μM H2O2, 1 h) | Fold change in expression, ATF3, 1-Hr (ATF3; 350 μM H2O2, 1 h) | Fold change in expression, CRYBA, 1-Hr (CRYBA; 200 μM H2O2, 1 h) | Fold change, HO-1, 1-Hr (HO-1; 50 μM H2O2, 1 h) | Fold change, HO-1, 4-Hr (HO-1; 50 μM H2O2, 4 h) | Fold change, HO-1, 1-Hr (HO-1; 100 μM H2O2, 1 h) | Fold change, HO-1, 1-Hr (HO-1; 200 μM H2O2, 1 h) | Fold change, HO-1, 1-Hr (HO-1; 350 μM H2O2, 1 h) | Fold change, HO-1, 1-Hr (HO-1; 500 μM H2O2, 1 h) | Increase in FosL transcription (FosL; after 1 hour of OS, 100 μM and 500 μM H2O2)
0 fold: Fold change in expression, cFos, 1-Hr (cFos; 50 μM H2O2, 1 h) | Fold change in expression, cFos, 1-Hr (cFos; 100 μM H2O2, 1 h) | Fold change in expression, ATF3, 1-Hr (ATF3; 50 μM H2O2, 1 h) | Fold change in expression, ATF3, 4-Hr (ATF3; 50 μM H2O2, 4 h) | Fold change in expression, ATF3, 1-Hr (ATF3; 100 μM H2O2, 1 h) | Fold change in expression, ATF3, 4-Hr (ATF3; 100 μM H2O2, 4 h) | Fold change in expression, CRYBA, 1-Hr (CRYBA; 50 μM H2O2, 1 h) | Fold change, JunB, 1-Hr (JunB; 50 μM H2O2, 1 h) | Fold change, JunB, 1-Hr (JunB; 100 μM H2O2, 1 h) | Fold change, JunB, 1-Hr (JunB; 200 μM H2O2, 1 h) | Fold change, JunB, 1-Hr (JunB; 350 μM H2O2, 1 h)
32 fold: Fold change in expression, cFos, 4-Hr (cFos; 500 μM H2O2, 4 h)
up to 12 fold: Increase in transcription of c-Fos (maximum) (cFos; after 1 hour of OS, 0-500 μM H2O2)
6 fold: Fold change in expression, FosB, 4-Hr (FosB; 100 μM H2O2, 4 h) | Fold change in expression, FosB, 1-Hr (FosB; 200 μM H2O2, 1 h) | Fold change in expression, FosB, 4-Hr (FosB; 200 μM H2O2, 4 h) | Fold change in expression, FosB, 1-Hr (FosB; 350 μM H2O2, 1 h) | Fold change, HO-1, 4-Hr (HO-1; 350 μM H2O2, 4 h) | Fold change, HO-1, 4-Hr (HO-1; 500 μM H2O2, 4 h)
1 fold: Fold change in expression, cFos, 4-Hr (cFos; 50 μM H2O2, 4 h) | Fold change in expression, CRYBA, 1-Hr (CRYBA; 100 μM H2O2, 1 h) | Fold change in expression, CRYBA, 4-Hr (CRYBA; 200 μM H2O2, 4 h) | Fold change, JunB, 4-Hr (JunB; 50 μM H2O2, 4 h)
3 fold: Fold change in expression, cFos, 4-Hr (cFos; 200 μM H2O2, 4 h) | Fold change in expression, ATF3, 4-Hr (ATF3; 200 μM H2O2, 4 h) | Fold change in expression, ATF3, 1-Hr (ATF3; 500 μM H2O2, 1 h) | Fold change in expression, CRYBA, 4-Hr (CRYBA; 100 μM H2O2, 4 h) | Fold change in expression, CRYBA, 1-Hr (CRYBA; 350 μM H2O2, 1 h) | Fold change in expression, CRYBA, 4-Hr (CRYBA; 350 μM H2O2, 4 h) | Fold change, JunB, 1-Hr (JunB; 500 μM H2O2, 1 h) | Increase in FosL transcription compared to controls (FosL; 4 hours after OS, highest OS dose)
